Results from patent US20040180835A1, “Use of the protein uk114 or of fragments thereof for the treatment and prevention of the endotoxic shock” (priority 2001, published 2004).
Marks after values point to notes of the source that are not given here. No end group written: not given here.

System: LPS-induced endotoxic shock
Test: LPS-induced endotoxic shock in mice (death rate after LPS injection)
Format: in vivo, Balb/c mice
Experimental: The pharmacological activity of UK 114 and of the peptides of the invention has been studied on the murine model of LPS-induced shock, as reported in the following Example.
Balb/c mice 6-8 weeks old were treated i.p. with 30 mcg of UK114 in 100 μl PBS (group B) or with 4 mcg of peptide 76-90 (group C) 24 hours and one hour before the administration of 500 mcg of LPS. A control group of mice (group A) was tretated with 100 μl PBS according to the same protocol used for groups C and B.
A further group was treated only with UK114 one hour after the administration of LPS (group D). This experimental approach more closely resembles the clinical practice where it is difficult to intervene prophylactically.
The death rate of the animals in each group was recorded every 12 hours up to the third day from the LPS injection.

Sequence: VVKATVLLADINDFS [pep. 76-90]
- Death-rate (at 72 h) (prophylactic i.p. treatment 24 hours and one hour before 500 mcg LPS, UK114 30 mcg, peptide 76-90 4 mcg, 50 mice per group, PBS control 40/50 (80%)): 25/50(50%)***
- Protection from the lethal effects of LPS (prophylactic treatment, 72 hours post LPS, vs PBS control group): clearly protected from the lethal effects of LPS
